Results from ChEMBL document CHEMBL1201862, “PubChem BioAssay data set” (2004).
Calls of active or inactive are those of the source.

Tests used:
Ion channel NompC = Ion channel NompC (Danio rerio, UniProt Q7T1G6); test: Fluorescence counterscreen assay for TRPML3 agonists: dose response cell-based high-throughput screening assay to identify agonists of the transient receptor potential channel N1 (TRPN1). [Related pubchem assays: 1526, 1424, 1448 ]; assay type: functional
Mucolipin-3 = target: T1, Mucolipin-3 (Homo sapiens, UniProt Q8TDD5); test: Dose response cell-based high-throughput screening assay for agonists of the transient receptor potential channel ML3 (TRPML3). [Related pubchem assays: 1526, 1424, 1448 ]; assay type: functional
T1 sequence (Q8TDD5 whole entry): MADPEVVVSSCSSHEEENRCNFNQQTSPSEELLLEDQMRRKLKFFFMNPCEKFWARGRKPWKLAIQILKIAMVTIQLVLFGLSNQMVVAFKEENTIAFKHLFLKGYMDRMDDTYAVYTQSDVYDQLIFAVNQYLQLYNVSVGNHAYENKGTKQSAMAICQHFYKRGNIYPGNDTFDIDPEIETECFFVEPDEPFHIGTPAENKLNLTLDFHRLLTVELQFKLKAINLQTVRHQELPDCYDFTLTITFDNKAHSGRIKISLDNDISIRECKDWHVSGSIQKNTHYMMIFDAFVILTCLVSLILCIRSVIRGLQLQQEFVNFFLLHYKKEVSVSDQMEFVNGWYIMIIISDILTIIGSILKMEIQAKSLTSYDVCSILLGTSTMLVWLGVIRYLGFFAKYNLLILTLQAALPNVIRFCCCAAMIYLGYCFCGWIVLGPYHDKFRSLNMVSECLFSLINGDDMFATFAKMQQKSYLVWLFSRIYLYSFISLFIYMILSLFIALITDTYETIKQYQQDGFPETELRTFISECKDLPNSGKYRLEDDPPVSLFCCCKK

[1] = target: T2, Polyadenylate-binding protein 1 (Homo sapiens, UniProt P11940); test: PABP1 MLLE–PAM2 binding inhibitor potency, dose response, biochemical, fluorescence polarization, FITC-PAM2 peptide (AID 602259); assay type: functional; settings: read-out: IC50_Mean
[2] = target: T2, Polyadenylate-binding protein 1; test: PABP1 MLLE–PAM2 interaction inhibitors, dose response, miRNA deadenylation inhibitor project, biochemical, fluorescence polarization, Cy5-PAM2 peptide, secondary (AID 602260); assay type: functional; settings: read-out: IC50_Mean
[3] = target: Peroxisome proliferator-activated receptor gamma/Nuclear receptor coactivator 3 (Homo sapiens, UniProt P37231); assay type: functional;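 note: agonist potency for raising coactivator recruitment to the receptor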
[4] = target: Peroxisome proliferator-activated receptor gamma/Nuclear receptor coactivator 1 (Homo sapiens, UniProt P37231); assay type: functional;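 note: agonist potency as compounds enhance coactivator SRC-1 recruitment to PPARgamma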
[5] = target: Peroxisome proliferator-activated receptor gamma/Nuclear receptor coactivator 2 (Homo sapiens, UniProt P37231); assay type: functional;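 note: agonist potency for raising coactivator recruitment to the receptor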
[6] = target: G-protein coupled receptor 55 (Homo sapiens, UniProt Q9Y2T6); test: GPR55 agonists via beta-arrestin recruitment, primary screen, imaging, U2OS cells, beta-arrestin-GFP redistribution (AID 1961); assay type: functional
fMet-Leu-Phe receptor = target: T3, fMet-Leu-Phe receptor (Homo sapiens, UniProt P21462); test: FPR ligands, dose response (AID 519); assay type: functional
T3 sequence (P21462 whole entry): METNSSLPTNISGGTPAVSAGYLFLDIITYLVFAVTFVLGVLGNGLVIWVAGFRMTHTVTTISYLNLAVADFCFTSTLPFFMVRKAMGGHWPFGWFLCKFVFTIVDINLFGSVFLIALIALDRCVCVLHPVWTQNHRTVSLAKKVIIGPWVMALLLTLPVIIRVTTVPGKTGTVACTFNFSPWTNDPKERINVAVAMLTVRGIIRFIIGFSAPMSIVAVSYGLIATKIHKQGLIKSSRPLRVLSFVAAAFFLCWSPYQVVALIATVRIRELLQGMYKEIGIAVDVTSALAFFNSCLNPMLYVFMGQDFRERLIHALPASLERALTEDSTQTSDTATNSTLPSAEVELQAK

Cytochrome P450 1A2 = target: T4, Cytochrome P450 1A2 (Homo sapiens, UniProt P05177);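 note: PubChem cytochrome P450 panel assay, CYP1A2 panel member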
T4 sequence (P05177 whole entry): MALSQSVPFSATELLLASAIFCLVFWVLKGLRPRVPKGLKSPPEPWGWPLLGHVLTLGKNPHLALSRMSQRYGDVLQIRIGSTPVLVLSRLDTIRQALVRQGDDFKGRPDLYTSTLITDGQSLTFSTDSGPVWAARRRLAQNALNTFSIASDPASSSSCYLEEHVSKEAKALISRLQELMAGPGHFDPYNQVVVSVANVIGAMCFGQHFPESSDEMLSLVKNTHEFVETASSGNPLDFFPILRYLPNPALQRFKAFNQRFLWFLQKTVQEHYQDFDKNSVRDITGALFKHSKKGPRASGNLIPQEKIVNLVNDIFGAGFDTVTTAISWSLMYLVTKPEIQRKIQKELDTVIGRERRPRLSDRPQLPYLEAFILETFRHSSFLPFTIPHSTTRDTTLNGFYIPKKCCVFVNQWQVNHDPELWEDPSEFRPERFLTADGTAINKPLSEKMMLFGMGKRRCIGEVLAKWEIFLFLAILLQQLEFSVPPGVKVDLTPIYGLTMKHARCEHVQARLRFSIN

Cytochrome P450 2D6 = Cytochrome P450 2D6 (Homo sapiens, UniProt P10635);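 note: CYP2D6 member of a cytochrome P450 panel assay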
[7] = inhibitors of intracellular T. cruzi replication, confirmation, NIH3T3 host cells, beta-gal luminescence (AID 2044); assay type: functional, cell-based;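 note: intracellular parasites grown in NIH/3T3 mouse fibroblasts as host cells; luminescent beta-galactosidase reporter signal from transgenic T. cruzi replicating inside host cells; inhibitors lower the luminescence signal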
[8] = cytotoxicity toward NIH3T3 fibroblasts, dose response, counter-screen, cell-based, ATP luminescence, mouse fibroblasts (AID 2010); assay type: functional;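 note: cells exposed to compound for about 90 hours before reading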
[9] = target: T5, NACHT, LRR and PYD domains-containing protein 1 (Homo sapiens, UniProt Q9C000); test: NALP1 inhibitors in yeast, dose response, luminescent (AID 488860); assay type: functional
T5 sequence (Q9C000 whole entry): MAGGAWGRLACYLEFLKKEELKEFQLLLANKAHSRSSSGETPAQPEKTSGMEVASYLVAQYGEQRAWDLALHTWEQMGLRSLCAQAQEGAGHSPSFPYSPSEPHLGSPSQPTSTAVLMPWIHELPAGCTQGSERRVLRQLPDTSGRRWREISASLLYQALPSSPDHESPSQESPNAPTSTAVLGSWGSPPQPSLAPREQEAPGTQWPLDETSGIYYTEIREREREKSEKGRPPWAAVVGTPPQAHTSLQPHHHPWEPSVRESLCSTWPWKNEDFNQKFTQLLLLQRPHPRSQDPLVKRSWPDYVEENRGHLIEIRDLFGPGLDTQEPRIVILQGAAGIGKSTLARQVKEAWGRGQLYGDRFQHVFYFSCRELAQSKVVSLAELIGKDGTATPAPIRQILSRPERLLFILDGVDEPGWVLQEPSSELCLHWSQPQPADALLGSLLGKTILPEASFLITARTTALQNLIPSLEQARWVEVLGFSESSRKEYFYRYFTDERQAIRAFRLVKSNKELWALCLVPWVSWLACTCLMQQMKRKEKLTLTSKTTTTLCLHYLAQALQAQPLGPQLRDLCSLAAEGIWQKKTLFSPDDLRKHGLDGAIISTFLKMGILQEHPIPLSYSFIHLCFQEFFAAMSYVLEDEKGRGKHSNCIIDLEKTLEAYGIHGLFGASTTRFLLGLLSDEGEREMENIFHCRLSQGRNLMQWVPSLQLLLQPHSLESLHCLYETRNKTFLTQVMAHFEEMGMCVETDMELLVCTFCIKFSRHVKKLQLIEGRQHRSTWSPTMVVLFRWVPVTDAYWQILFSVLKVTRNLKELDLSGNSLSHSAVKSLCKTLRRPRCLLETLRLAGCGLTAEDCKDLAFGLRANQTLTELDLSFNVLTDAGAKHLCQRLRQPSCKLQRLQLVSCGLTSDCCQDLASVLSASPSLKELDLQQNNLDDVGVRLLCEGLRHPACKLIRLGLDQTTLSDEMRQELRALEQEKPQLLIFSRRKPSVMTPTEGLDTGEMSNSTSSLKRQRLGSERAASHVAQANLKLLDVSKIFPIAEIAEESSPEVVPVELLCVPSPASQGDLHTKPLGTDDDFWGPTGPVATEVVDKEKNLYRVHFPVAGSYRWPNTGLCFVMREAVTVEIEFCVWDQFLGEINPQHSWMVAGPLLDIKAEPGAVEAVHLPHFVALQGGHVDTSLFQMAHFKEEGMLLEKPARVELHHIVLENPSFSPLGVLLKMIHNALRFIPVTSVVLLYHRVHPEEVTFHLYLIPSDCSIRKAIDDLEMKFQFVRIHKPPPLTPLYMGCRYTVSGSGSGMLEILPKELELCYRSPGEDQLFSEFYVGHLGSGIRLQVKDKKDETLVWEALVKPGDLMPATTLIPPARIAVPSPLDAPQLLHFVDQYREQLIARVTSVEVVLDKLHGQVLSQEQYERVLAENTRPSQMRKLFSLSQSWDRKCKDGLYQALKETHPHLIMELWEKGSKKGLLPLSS

Saccharomyces cerevisiae = test: NALP1 inhibitor project selectivity study, Caspase-1/ASC signal blockade IC50 in S. cerevisiae (AID 488863); assay type: functional, organism-based
[10] = target: Voltage-dependent T-type calcium channel subunit alpha-1H (Homo sapiens, UniProt O95180); assay type: functional;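 note: channel activity triggered by adding a high calcium stimulation buffer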
BJ [11] = test: cells; assay type: functional, cell-based; settings: Homo sapiens
BJ [12] = test: cytotoxicity toward BJ-TERT fibroblasts, dose response, cell-based, RAS-independent, luminescence (AID 1933); assay type: functional; settings: Homo sapiens
[13] = Luminescence Cell-Based Dose Response HTS to Identify Inhibitors of 5'UTR Stem-Loop Driven Prion Protein mRNA Translation in H4 Neuroglioblastoma Cells. [Related pubchem assays: 1827 (Project Summary), 1813 (Primary HTS)]; assay type: functional
Vero [14] = test: cells; assay type: functional; settings: Chlorocebus sabaeus
BJ [15] = test: cytotoxicity toward BJ-TERT-LT-ST fibroblasts, dose response, cell-based, RAS-independent, luminescence (AID 1935); assay type: functional; settings: Homo sapiens;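 note: BJ fibroblasts immortalized with TERT plus LT and ST oncogenes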
[16] = cytotoxicity toward DRD oncogenic fibroblasts, dose response, cell-based, non-viral oncogenic, luminescence (AID 1934); assay type: functional; settings: Homo sapiens
Vero [17] = test: cells; assay type: functional, cell-based; settings: Chlorocebus sabaeus
[18] = inhibitors of SNCA 5'UTR-driven reporter translation, confirmation, H4 neuroglioma cells, luminescence (AID 1988); assay type: functional, cell-based
[19] = inhibitors of firefly luciferase expression or activity, dose response, H4 neuroglioma cells, luminescence (AID 1990); assay type: functional, cell-based
[20] = A Cell Based Secondary Assay To Explore Cytotoxicity of Compounds that Sensitize Mycobacterium Tuberculosis to Beta-Lactam Antibiotics.; assay type: functional
[21] = HEp-2 cell cytotoxicity, dose response, cytotoxicity control for RSV inhibitor project, HTS (AID 2410); assay type: functional; settings: human respiratory syncytial virus
[22] = target: Glyceraldehyde-3-phosphate dehydrogenase (Homo sapiens, UniProt P04406)

Sequence of Voltage-dependent T-type calcium channel subunit alpha-1H (O95180 whole entry): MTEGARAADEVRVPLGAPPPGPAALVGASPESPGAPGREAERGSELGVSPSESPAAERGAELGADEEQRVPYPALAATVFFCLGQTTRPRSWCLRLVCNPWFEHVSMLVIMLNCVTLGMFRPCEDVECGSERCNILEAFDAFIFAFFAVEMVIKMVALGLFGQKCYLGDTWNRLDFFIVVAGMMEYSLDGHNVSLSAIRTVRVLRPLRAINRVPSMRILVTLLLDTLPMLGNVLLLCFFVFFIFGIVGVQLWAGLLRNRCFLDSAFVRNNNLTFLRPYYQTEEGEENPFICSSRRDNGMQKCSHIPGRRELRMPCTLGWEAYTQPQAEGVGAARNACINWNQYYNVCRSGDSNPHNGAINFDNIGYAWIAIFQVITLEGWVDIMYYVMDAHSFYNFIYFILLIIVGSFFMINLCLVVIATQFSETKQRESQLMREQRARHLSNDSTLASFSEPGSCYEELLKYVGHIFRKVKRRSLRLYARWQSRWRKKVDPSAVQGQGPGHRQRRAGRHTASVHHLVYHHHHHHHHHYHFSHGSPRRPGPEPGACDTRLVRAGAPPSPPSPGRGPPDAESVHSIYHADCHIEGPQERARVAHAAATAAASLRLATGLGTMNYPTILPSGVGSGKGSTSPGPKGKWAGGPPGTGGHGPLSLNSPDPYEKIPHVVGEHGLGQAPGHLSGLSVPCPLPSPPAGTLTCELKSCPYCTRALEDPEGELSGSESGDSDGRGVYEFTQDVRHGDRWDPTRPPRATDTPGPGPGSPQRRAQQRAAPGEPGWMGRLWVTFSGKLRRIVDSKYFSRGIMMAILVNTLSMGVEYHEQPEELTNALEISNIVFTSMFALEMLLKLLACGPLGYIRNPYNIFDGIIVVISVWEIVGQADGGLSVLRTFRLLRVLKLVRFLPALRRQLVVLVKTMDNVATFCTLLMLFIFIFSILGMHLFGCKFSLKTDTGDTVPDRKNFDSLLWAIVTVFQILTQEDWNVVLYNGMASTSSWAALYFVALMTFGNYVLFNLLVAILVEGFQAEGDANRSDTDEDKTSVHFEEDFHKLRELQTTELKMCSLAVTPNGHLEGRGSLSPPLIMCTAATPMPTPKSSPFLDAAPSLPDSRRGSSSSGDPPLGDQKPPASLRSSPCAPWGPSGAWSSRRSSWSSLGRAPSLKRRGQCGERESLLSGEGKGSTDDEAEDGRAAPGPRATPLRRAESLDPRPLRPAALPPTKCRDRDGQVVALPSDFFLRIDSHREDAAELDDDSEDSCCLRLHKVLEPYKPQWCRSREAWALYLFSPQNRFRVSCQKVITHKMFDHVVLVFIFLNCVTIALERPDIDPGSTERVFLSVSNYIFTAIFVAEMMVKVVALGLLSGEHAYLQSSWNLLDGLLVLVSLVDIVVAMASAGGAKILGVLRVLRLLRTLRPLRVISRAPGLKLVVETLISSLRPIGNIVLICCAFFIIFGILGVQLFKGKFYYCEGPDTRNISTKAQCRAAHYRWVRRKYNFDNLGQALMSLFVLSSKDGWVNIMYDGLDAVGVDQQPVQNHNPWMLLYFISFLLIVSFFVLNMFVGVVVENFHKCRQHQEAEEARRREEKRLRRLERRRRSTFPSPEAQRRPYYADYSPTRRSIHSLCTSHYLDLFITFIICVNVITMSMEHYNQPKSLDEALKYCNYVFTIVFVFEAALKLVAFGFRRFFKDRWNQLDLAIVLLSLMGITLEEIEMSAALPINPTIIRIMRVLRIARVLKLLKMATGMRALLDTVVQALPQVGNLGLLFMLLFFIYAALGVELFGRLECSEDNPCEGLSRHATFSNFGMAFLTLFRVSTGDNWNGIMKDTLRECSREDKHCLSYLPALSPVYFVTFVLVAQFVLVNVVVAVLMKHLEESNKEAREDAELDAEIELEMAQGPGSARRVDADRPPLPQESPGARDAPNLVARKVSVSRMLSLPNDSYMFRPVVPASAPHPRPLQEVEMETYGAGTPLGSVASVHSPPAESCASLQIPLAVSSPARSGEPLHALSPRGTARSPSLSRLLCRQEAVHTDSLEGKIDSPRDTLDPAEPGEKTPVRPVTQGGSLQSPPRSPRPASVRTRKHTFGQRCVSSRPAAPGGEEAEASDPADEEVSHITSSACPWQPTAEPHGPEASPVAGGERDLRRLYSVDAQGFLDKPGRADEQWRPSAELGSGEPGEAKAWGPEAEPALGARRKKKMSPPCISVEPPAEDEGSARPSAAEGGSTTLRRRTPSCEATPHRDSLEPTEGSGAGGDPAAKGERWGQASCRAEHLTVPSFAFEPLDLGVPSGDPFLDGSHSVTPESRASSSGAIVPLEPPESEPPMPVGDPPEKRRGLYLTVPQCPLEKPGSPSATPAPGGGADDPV
Sequence of Peroxisome proliferator-activated receptor gamma/Nuclear receptor coactivator 2 (P37231 whole entry): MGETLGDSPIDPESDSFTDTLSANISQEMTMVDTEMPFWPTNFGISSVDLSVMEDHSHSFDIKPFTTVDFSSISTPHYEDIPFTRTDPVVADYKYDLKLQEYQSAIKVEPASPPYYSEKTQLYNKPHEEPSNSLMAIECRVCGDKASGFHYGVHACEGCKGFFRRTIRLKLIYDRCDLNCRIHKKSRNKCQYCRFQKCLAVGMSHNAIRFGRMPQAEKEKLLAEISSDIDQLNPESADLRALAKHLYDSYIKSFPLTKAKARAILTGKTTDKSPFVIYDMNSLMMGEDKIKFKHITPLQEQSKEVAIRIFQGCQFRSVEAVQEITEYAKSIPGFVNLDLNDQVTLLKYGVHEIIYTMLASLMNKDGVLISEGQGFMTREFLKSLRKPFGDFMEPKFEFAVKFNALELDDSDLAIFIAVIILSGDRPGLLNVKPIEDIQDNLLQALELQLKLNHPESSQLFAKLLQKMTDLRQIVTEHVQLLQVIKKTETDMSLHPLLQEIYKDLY
Sequence of Peroxisome proliferator-activated receptor gamma/Nuclear receptor coactivator 2 (Q15596 whole entry, further chain): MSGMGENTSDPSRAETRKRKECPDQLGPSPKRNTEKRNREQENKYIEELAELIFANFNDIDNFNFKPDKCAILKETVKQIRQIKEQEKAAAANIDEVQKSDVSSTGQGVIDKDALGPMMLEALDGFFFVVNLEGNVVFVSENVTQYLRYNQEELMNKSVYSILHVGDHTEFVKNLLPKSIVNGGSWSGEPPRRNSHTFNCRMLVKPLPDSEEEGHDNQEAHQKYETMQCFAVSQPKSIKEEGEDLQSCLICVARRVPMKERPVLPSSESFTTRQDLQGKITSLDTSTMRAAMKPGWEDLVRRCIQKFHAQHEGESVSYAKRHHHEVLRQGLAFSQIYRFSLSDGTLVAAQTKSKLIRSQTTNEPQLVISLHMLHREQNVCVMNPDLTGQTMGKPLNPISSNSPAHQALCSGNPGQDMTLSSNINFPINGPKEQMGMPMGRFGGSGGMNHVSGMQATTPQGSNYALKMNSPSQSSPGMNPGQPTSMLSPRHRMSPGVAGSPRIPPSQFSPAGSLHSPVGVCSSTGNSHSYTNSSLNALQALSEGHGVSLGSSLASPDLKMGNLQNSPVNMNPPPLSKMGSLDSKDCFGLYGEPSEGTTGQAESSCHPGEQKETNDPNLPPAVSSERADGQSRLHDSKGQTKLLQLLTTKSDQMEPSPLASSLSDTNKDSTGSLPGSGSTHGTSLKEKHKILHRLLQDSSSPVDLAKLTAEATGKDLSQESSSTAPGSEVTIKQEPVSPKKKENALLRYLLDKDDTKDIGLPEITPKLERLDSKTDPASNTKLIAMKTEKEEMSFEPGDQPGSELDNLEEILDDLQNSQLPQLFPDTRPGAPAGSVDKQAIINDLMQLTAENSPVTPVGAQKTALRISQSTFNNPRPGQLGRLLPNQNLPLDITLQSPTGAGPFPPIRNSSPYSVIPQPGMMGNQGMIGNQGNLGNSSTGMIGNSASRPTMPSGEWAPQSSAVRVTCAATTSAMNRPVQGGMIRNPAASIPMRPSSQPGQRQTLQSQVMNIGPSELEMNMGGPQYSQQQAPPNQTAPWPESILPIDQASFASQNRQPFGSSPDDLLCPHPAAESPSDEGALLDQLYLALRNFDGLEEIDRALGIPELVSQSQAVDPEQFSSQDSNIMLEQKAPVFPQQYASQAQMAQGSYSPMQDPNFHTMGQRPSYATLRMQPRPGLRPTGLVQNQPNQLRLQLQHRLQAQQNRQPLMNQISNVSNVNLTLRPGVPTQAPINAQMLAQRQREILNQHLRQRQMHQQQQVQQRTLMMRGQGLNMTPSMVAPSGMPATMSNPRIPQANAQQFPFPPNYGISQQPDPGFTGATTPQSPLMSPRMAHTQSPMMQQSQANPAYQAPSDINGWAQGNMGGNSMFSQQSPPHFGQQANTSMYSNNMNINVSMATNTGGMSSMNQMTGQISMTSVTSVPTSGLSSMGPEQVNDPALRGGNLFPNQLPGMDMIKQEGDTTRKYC
T2 sequence (P11940 whole entry): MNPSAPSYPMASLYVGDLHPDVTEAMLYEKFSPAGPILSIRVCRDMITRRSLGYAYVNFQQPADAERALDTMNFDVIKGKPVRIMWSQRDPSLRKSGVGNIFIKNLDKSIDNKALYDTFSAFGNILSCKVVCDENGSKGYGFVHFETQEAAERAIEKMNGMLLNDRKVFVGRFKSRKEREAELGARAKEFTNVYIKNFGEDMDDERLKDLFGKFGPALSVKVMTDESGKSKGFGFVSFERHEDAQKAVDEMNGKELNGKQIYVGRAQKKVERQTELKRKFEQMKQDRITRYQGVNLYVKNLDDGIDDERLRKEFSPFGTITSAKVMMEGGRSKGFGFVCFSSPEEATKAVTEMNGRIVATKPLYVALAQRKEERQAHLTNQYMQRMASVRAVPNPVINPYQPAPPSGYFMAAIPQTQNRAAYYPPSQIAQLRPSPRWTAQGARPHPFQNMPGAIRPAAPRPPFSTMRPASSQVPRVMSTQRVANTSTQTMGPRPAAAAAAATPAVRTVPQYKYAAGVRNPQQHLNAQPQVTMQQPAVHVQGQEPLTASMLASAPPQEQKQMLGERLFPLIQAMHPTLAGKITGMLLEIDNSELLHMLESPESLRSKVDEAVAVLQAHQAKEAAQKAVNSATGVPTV

Compound: CCOC(=O)CSc1nc2c(sc(=S)n2-c2ccccc2OC)c(=O)n1Cc1ccco1
- EC50 (Ion channel NompC): > 29.9 µM (not active)
- EC50 (Mucolipin-3): 0.37 µM (active)
- IC50 [1]: > 66 µM (inactive)
- IC50 [2]: > 66 µM (inactive)

Compound: Cc1ccc(N2C(=O)C3CCC(c4ccccc4)CC3C2=O)cc1 (stereo not drawn)
- EC50 [3]: > 79.4 µM (not active)
- EC50 [4]: > 79.4 µM (not active)
- EC50 [5]: > 79.4 µM (not active)

Compound: Cc1nn2c(O)c3c(nc2c1-c1cccc2ccccc12)CCC3
- EC50 [6]: 8.52 µM (active)
- Ki (fMet-Leu-Phe receptor): 53.7 µM (inactive)
- AC50 (Cytochrome P450 1A2): 25.1 µM (inconclusive)
- AC50 (Cytochrome P450 2D6): 35.5 µM (inconclusive)

Compound: Cc1ccc(C(=O)/C=C\C(=O)c2ccc(C)cc2)cc1
- EC50 [7]: 1.97 µM (active)
- EC50 [8]: > 60 µM (not active)
- IC50 [9]: 8.75 µM (active)
- IC50 (Saccharomyces cerevisiae): 6.51 µM (active)

Compound: CCCn1c(NCc2cc(OC)ccc2OC)nc2ccccc21
- EC50 [10]: 5.97 µM (active)

Compound: CC(=O)Nc1cccc(Oc2ncnc3scc(-c4ccc(C(C)C)cc4)c23)c1
- EC50 [6]: 6.01 µM (active)
- EC50 (BJ [11]): 61.5 µM (active)
- EC50 (BJ [12]): 42.6 µM (active)
- EC50 [13]: > 120 µM (not active)
- CC50 (Vero [14]): > 25 µM (active)
- EC50 (BJ [15]): > 150 µM (inconclusive)
- EC50 [16]: 31.3 µM (active)
- IC50 (Vero [17]): 17.7 µM (active)
- EC50 [18]: 18.2 µM (active)
- EC50 [19]: 21.7 µM (active)

Compound: Cc1ccc(CNC(=O)C(=O)NCC2OCCN2S(=O)(=O)c2ccc3c(c2)OCCO3)cc1 (stereo not drawn)
- EC50 [10]: 4.92 µM (active)

Compound: Cn1cccc1Cc1nnc(SCC(=O)Nc2cccc(Cl)c2)n1-c1ccc(F)cc1
- EC50 [10]: 1.24 µM (active)

Compound: Cc1sc(-n2c(C)cc(/C=N/n3cnnc3)c2C)c(C#N)c1C
- EC50 [3]: > 79.4 µM (not active)
- EC50 [4]: > 79.4 µM (not active)
- EC50 [5]: > 79.4 µM (not active)

Compound: CCc1ccc(C(=O)NCc2ccc(Cl)cc2Cl)cc1
- IC50 [9]: 33.9 µM (active)
- IC50 (Saccharomyces cerevisiae): 61 µM (active)

Compound: O=S(=O)(C=C(c1ccccc1)c1ccccc1)c1ccccc1
- EC50 (Ion channel NompC): > 29.9 µM (not active)
- EC50 (Mucolipin-3): 2.82 µM (active)
- AC50 (Cytochrome P450 1A2): 28.2 µM (inconclusive)

Compound: Cc1nc(SCC(=O)Nc2ccc(F)cc2)c(C#N)c(C)c1CC(=O)c1ccc(Br)cc1
- CC50 [20]: 9.4 µM (active)
- EC50 [3]: 24.8 µM (not active)
- EC50 [4]: 13.8 µM (not active)
- EC50 [5]: 9.89 µM (active)

Compound: O=C(NC1=NCCS1)c1cc(-c2ccc(-c3ccccc3)cc2)nc2ccccc12
- CC50 [21]: 21.9 µM (active)
- IC50 (cells): 21.7 µM (active)

Compound: O=C(O)c1cccc(N2C(=O)c3ccc4c5c(ccc(c35)C2=O)CC4)c1
- IC50 [22]: > 100 µM (not active)
